A melting point of 179 to 181.5 °C was found for `CCOc1cc(C(CC#N)N2C(=O)c3cccc(NC(N)=O)c3C2=O)ccc1OC` (centres unmarked) [Example 12] in this work.
A melting point of 122 to 124 °C was found for `CCOc1cc([C@@H](CS(C)(=O)=O)N2Cc3cccc(NCC(C)C)c3C2=O)ccc1OC` [Example 5, (1S)-2-[1-(3-Ethoxy-4-methoxyphenyl)-2-methanesulfonyl-ethyl]-7-isobutylamino-2,3-dihydro-isoindol-1-one] in this work.
A melting point of 102 to 104 °C was found for `COc1ccc(C(CS(C)(=O)=O)N2C(=O)c3cccc(NC(C)=O)c3C2=O)cc1OCC1CC1` (centres unmarked) [Example 13, N-{2-[1-(3-Cyclopropylmethoxy-4-methoxy-phenyl)-2-methanesulfonyl-ethyl]-1,3-dioxo-2,3-dihydro-1H-isoindol-4-yl}-acetamide] in this work.
A melting point of 147 to 149 °C was found for `CCOc1cc([C@@H](CS(C)(=O)=O)N2Cc3cccc(NCC4CC4)c3C2=O)ccc1OC` [Example 4, (1S)-7-(Cyclopropylmethyl-amino)-2-[1-(3-ethoxy-4-methoxyphenyl)-2-methanesulfonyl-ethyl]-2,3-dihydro-isoindol-1-one] in this work.
A melting point of 163 to 165 °C was found for `CCOc1cc(C(CC#N)N2C(=O)c3ccc4ccccc4c3C2=O)ccc1OC` (centres unmarked) [Example 1, 3-(1,3-Dioxobenzo[e]isoindolin-2-yl)-3-(3-ethoxy-4-methoxyphenyl)propanenitrile] in this work.
A melting point of 105 to 107 °C was found for `CCOc1cc([C@@H](CC(=O)N(C)C)N2Cc3cccc(NC(=O)N(C)C)c3C2=O)ccc1OC` [Example 15, (3R)-3-(7-(3,3-Dimethyl-ureido)-1-oxo-1,3-dihydro-isoindol-2-yl}-3-(3-ethoxy-4-methoxy-phenyl)-N,N-dimethyl-propionamide] in this work.
A melting point of 170 to 172 °C was found for `CCOc1cc([C@@H](CS(C)(=O)=O)N2Cc3cccc(NC(=O)N(C)C)c3C2=O)ccc1OC` [Example 16, (1S)-3-{2-[1-(3-Ethoxy-4-methoxy-phenyl)-2-methanesulfonyl-ethyl]-3-oxo-2,3-dihydro-1H-isoindol-4-yl}-1,1-dimethyl-urea] in this work.
A melting point of 163 to 165 °C was found for `CCOc1cc(C(CC#N)N2C(=O)c3ccc(NC(N)=O)cc3C2=O)ccc1OC` (centres unmarked) [Example 11] in this work.
A melting point of 111 to 113 °C was found for `CCOc1cc([C@@H](CC(=O)N(C)C)N2Cc3cccc(NCC(C)(C)C)c3C2=O)ccc1OC` [Example 6, (3R)-3-[7-(2,2-Dimethyl-propylamino)-1-oxo-1,3-dihydro-isoindol-2-yl]-3-(3-ethoxy-4-methoxyphenyl)-N,N-dimethyl-propionamide] in this work.
A melting point of 184 to 186 °C was found for `CCOc1cc([C@@H](CS(C)(=O)=O)N2C(=O)c3cccc(NC(=O)c4ccco4)c3C2=O)ccc1OC` [Example 2, (1S)-Furan-2-carboxylic Acid {2-[1-(3-ethoxy-4-methoxyphenyl)-2-methanesulfonyl-ethyl]-1,3-dioxo-2,3-dihydro-1H-isoindol-4-yl}-amide] in this work.
A melting point of 151 to 153 °C was found for `CCOc1cc([C@@H](CS(C)(=O)=O)N2C(=O)c3cccc(NC(=O)COC)c3C2=O)ccc1OC` [Example 3, (1S)—N-{2-[1-(3-ethoxy-4-methoxyphenyl)-2-methanesulfonyl-ethyl]-1,3-dioxo-2,3-dihydro-1H-isoindol-4-yl}-2-methoxy-acetamide] in this work.

— patent US8026269B2, “Isoindoline compounds and methods of making and using the same” (Celgene Corporation, priority 2004, dated 2011)
